Reference: patent US12673057B2, “RIPK2 inhibition for the treatment of cancer” (CEDARS-SINAI MEDICAL CENTER, priority 2020, dated 2026)
“Also recorded” adds a separate entry of the source. Like-named read-outs stand apart in the source and are kept apart here. Residues, ends and D or L forms follow the SMILES beside them. *: point of attachment. Cbz = O=C(OCc1ccccc1)*

Tests used:
[1] = tested on: RIPK2; assay: Cell-based MKK7 phosphorylation immunoblot, surrogate for RIPK2 activity, RIPK2-KO HEK293T cells; set-up: species or system human; conditions: 10 μM, 2 h, 10% fetal bovine serum
[2] = tested on: RIPK2/MKK7(/JNK)/c-Myc signaling; assay: Immunoblot of endogenous p-JNK, p-c-Myc-S62 and c-Myc in parental PC cells; type: cell-based, human; conditions: 10 μM GSK583 or 5 μM Ponatinib, 2 h
[3] = tested on: PC3, DU145, and 22Rv1 cells; assay: Soft agar assay (anchorage-independent colony formation); type: cell-based, human; conditions: 10 μM
Method: Soft agar assay was performed essentially as described (Borowicz et al., 2014). Briefly, 1.5 mL of 0.5% Nobel agar solution was plated in each well of 6-well plates as the bottom layer. 1.5 mL of 6.67×10^3/mL (for PC3 and DU145) or 1.33×10^4/mL (for 22Rv1) cells in 0.3% noble agar solution were plated in 6-well plates as the top layer. […] The medium was replaced every 2-3 days. After 2-3 weeks, cell colonies were stained with 0.1% crystal violet solution for 20 minutes and washed with deionized water for five times. Cell colonies were quantified under an All-in-one microscope (Keyence) as described in the migration assay.

[4] = tested on: 22Rv1 cells
Method: Experimental metastasis model: For In vivo metastasis assays, pBMN (CMV-copGFP-Luc2-Puro) (Addgene) was stably transfected into control and RIPK2-KO 22Rv1 cells. Two weeks later, luciferase-expressing cells were sorted with a FACSAria III (BD Biosciences) using the same gate for GFP. […] To each male SCID/Beige mouse (7-week-old; Charles River), 100 μL of 1×10^7 cells/mL in DPBS was intracardially injected into the left cardiac ventricle. Each week, 150 μL of 30 mg/mL D-luciferin was intraperitoneally injected into each mouse, followed by measuring tumor metastasis with an IVIS Spectrum In Vivo Imaging System (PerkinElmer). Luciferase activity was quantified by the Living Image software (Caliper Life Sciences, v4.3.1).
Established metastasis model: For drug treatment, to each male SCID/Beige mouse (8-week-old; Charles River), 100 μL of 2.5×10^6 cells/mL in DPBS was intracardially injected. […] Two more mice were assigned to drug treatment groups in preparation for possible drug toxicity deaths, compared with the control group. Mice were daily administered by oral gavage (po qd) with a drug or vehicle control for 28 days. GSK583 was administered at 10 mg/kg po qd. […] Metastases were visualized by bioluminescence imaging every week as described above. At the end of the experiments, mice were sacrificed by standard necropsy, and tumors were harvested and subjected to histopathology analyses.
In the clinical scenario, patients with nmCRPC have no detectable metastases by conventional radiographic imaging. […] To investigate whether pharmacological inhibition of RIPK2 can suppress PC metastasis in a setting that mimics the clinical scenario, we injected the aforementioned luciferase-tagged control 22Rv1 cells intracardially into male SCID/Beige mice, and waited for 9 days to allow for the formation of early metastatic lesions, prior to drug treatment (FIG. 22G). To determine whether GSK583 impairs metastatic outgrowth, we randomized the mice into two groups (FIG. 31A), followed by treatment with vehicle control or GSK583 (10 mg/kg) administered by oral gavage every day (po qd).

[5] = tested on: PC3 cells; assay: 3D spheroid invasion assay; conditions: 10 μM, 3D culture
[6] = tested on: MYC mRNA; assay: MYC mRNA abundance by quantitative RT-PCR; type: cell-based; conditions: different doses and time
Excerpt: Total RNA was extracted from cells using the TRIZOL (Invitrogen). Messenger RNA was converted to the first-strand cDNA using iScript cDNA synthesis kit (Bio-Rad), followed by RT-PCR reaction using SYBR Green PCR Master Kit in QuantStudio 5 Systems (Applied Biosystems). Gene expression was normalized to GAPDH using the comparative CT method. To determine how RIPK2 upregulates the c-Myc protein, we first examined whether RIPK2 regulates the transcription of the MYC gene. […] Thus, the regulation of c-Myc protein abundance by RIPK2 is mainly via a post-transcriptional mechanism.

[7] = mouse, in vivo, po, 30 mg/kg
[8] = tested on: PC3, DU145, and 22Rv1 cells; assay: Clonogenic assay (anchorage-dependent colony formation); type: cell-based, human
Method: Two milliliters of PC3 (250/mL), DU145 (250/mL), or 22Rv1 (1,000/mL) cells were seeded in 6-well plates and cultured in 10% FBS-containing media, which were replaced every 2-3 days. After 10-14 days, cells were fixed in 4% paraformaldehyde for 15 min and rinsed with DPBS for three times. Cells were stained with 120 μg/mL crystal violet solution. Cell colonies were quantified under an All-in-one microscope (Keyence) as described in the migration assay.

[9] = tested on: JNK; assay: RIPK2-induced c-Jun phosphorylation (surrogate for JNK activity) in RIPK2/MKK7-DKO HEK293T cells; type: cell-based, human; conditions: 1 μM, 2-h treatment
Method: (A) Representative immunoblots of the indicated proteins in total lysates of HEK293T cells with RIPK2- and MKK7-double knockout, which were transiently co-transfected with 0.5 μg MYC, 0.5 μg RIPK2m4, and 0.1 μg MAP2K7 or vector plasmids and then treated with vehicle control, MKK7-COV-3 (25 μM), or JNK-IN-8 (1 μM) in 10% FBS-containing medium for 2 h. (B) Representative images (upper) and quantification (lower) of PLA detecting the association of endogenous MKK7 and c-Myc in HEK293T cells (n=4 per group). (C) Representative images of immunofluorescence colocalization of MKK7 and c-Myc in RIPK2/MKK7-DKO HEK293T cells, which were transiently co-transfected with RIPK2m4, MKK7-His, and MYC plasmids. (D) Representative immunoblots of the indicated proteins after in vitro kinase reactions. (E) Representative immunoblots of the indicated proteins in total lysates of RIPK2/MKK7-DKO HEK293T cells, which were transiently transfected with the indicated forms of MKK7 plasmids or vector control. […] (G) Representative images (upper) and quantification (lower) of PLA detecting the MKK7-c-Myc complex in RIPK2-KO HEK293T cells, which were transiently transfected with MYC and RIPK2m4 or vector control (n=5 per group). […]

[10] = tested on: c-Myc-Ser62 phosphorylation; assay: RIPK2-induced c-Myc-Ser62 phosphorylation immunoblot in RIPK2/MKK7-DKO HEK293T cells; type: cell-based, human
Method: (A) Representative immunoblots of the indicated proteins in total lysates of HEK293T cells with RIPK2- and MKK7-double knockout, which were transiently co-transfected with 0.5 μg MYC, 0.5 μg RIPK2m4, and 0.1 μg MAP2K7 or vector plasmids and then treated with vehicle control, MKK7-COV-3 (25 μM), or JNK-IN-8 (1 μM) in 10% FBS-containing medium for 2 h. (B) Representative images (upper) and quantification (lower) of PLA detecting the association of endogenous MKK7 and c-Myc in HEK293T cells (n=4 per group). (C) Representative images of immunofluorescence colocalization of MKK7 and c-Myc in RIPK2/MKK7-DKO HEK293T cells, which were transiently co-transfected with RIPK2m4, MKK7-His, and MYC plasmids. (D) Representative immunoblots of the indicated proteins after in vitro kinase reactions. (E) Representative immunoblots of the indicated proteins in total lysates of RIPK2/MKK7-DKO HEK293T cells, which were transiently transfected with the indicated forms of MKK7 plasmids or vector control. (F) Representative immunoblots of the indicated proteins in total lysates, cytoplasmic fraction, and nuclear fraction of RIPK2/MKK7-DKO HEK293T cells, which were transiently co-transfected with RIPK2m4, MYC, and MKK7 or vector control. (G) Representative images (upper) and quantification (lower) of PLA detecting the MKK7-c-Myc complex in RIPK2-KO HEK293T cells, which were transiently transfected with MYC and RIPK2m4 or vector control (n=5 per group). […] Data are Mean±SEM.
MKK7-COV-3, 25 μM; JNK-IN-8, 1 μM; 2-h treatment).

[11] = tested on: c-Myc protein; assay: c-Myc protein degradation under cycloheximide treatment in PC3 cells; type: cell-based, human; conditions: in the presence of CHX treatment
Excerpt: In human cells, the c-Myc protein can be rapidly stabilized through Ser62 phosphorylation, which prevents the targeted degradation of c-Myc by the ubiquitin-proteasome system (Farrell and Sears, 2014). Therefore, we investigated whether RIPK2 phosphorylates and stabilizes the c-Myc protein. Ectopic overexpression of RIPK2 increased the abundance of phospho-c-Myc-Ser62 (p-c-Myc-Ser62) and total c-Myc in a dose-dependent fashion (FIG. 18L). […] Of note, RIPK2 is more frequently amplified or gained in mCRPC or overexpressed in primary PC than all known direct c-Myc-Ser62 kinases (FIG. 29). This raises a possibility that RIPK2 can more efficiently stabilize and activate c-Myc, and thus its overexpression is more favored by PC cells than the known direct c-Myc-Ser62 kinases. Collectively, RIPK2 stabilizes the c-Myc protein by phosphorylating its Ser62 residue and preventing it from proteasomal degradation, and RIPK2 is potentially a major stabilizer of the c-Myc protein in PC cells.

[12] = tested on: PC3 and 22Rv1 cells; assay: PC cell viability; conditions: 1 μM, 10% FBS-containing medium
[13] = cited from earlier work

CC(C)(C)S(=O)(=O)c1ccc2nccc(Nc3n[nH]c4ccc(F)cc34)c2c1 [GSK583]
MKK7 phosphorylation levels (a surrogate for RIPK2 activity) [1]: substantially decreased | RIPK2/MKK7(/JNK)/c-Myc signaling [2]: can inhibit | anchorage-independent colony formation [3]: suppresses | PC liver metastasis in vivo ([4]; 10 mg/kg po qd): Inhibits | prostate cancer (22Rv1) metastasis in mice ([4]; 10 mg/kg po qd): significantly decreased; also recorded: significantly suppressed; also recorded: significantly reduces; also recorded: Inhibits | decrease of BLI intensities in the ventral-side mid-body (liver metastasis) ([4]; 10 mg/kg po qd, week 4): 67% | reduction of metastatic progression (total BLI intensities) ([4]; 10 mg/kg po qd, week 4): 50% | spheroid invasion of PC3 cells [5]: significantly decreased; also recorded: significantly inhibited; also recorded: suppresses | regulation of MYC mRNA abundance [6]: ~10% | toxicity to mice [7]: toxic to mice | anchorage-dependent colony formation ([8]; 10 μM, PC3, DU145, and 22Rv1): suppresses | inhibition at 10 µM ([8]; Homo sapiens, read-out: inhibition of colony formation): ≥ 40% | inhibition of colony formation ([8]; low doses (≤1 μM), PC3, DU145, and 22Rv1): not at low doses

Cc1cc(NC(=O)c2cccc(NC(=O)/C=C/CN(C)C)c2)ccc1Nc1nccc(-c2cccnc2)n1 [JNK-IN-8]
RIPK2-induced c-Jun phosphorylation, a surrogate for JNK activity [9]: completed abolished | reduction of RIPK2-induced c-Myc-Ser62 phosphorylation ([10]; 1 μM, 2-h treatment): 16% | inhibition of RIPK2-induced c-Myc-Ser62 phosphorylation at higher concentrations ([10]; up to 25 μM): could not enhance its inhibition

CC(C)C[C@@H](C=O)NC(=O)[C@H](CC(C)C)NC(=O)[C@H](CC(C)C)NC(=O)OCc1ccccc1 [MG132] (Cbz-Leu-Leu-Leu-aldehyde)
degradation of the c-Myc protein [11]: degradation can be blocked

C=CC(=O)Nc1cccc(-c2n[nH]c3cc(C)ccc23)c1 [MKK7-COV-3]
decrease of RIPK2-induced c-Myc-Ser62 phosphorylation ([10]; 25 μM, 2-h treatment): 45%

Cc1ccc(C(=O)Nc2ccc(CN3CCN(C)CC3)c(C(F)(F)F)c2)cc1C#Cc1cnc2cccnn12 [Ponatinib]
effect on PC cell viability [12]: marginal effects | reduction of total BLI intensities ([4]; high-dose 30 mg/kg po qd for 10 days then 15 mg/kg, week 4): 92% | reduction of total BLI intensities ([4]; low-dose 6 mg/kg po qd, week 4): 74% | venous thromboembolic events ([13]; % of patients): 6% | arterial occlusive adverse events: cardiac vascular events ([13]; patients): 21% | arterial occlusive adverse events: cerebrovascular ([13]; patients): 9% | arterial occlusive adverse events: peripheral vascular ([13]; patients): 12% | common adverse event: abdominal pain ([13]; patients): 48% | common adverse event: arterial ischemia ([13]; patients): 42% | common adverse event: arthralgia ([13]; patients): 32% | common adverse event: back pain ([13]; patients): 21% | common adverse event: constipation ([13]; patients): 41% | common adverse event: diarrhea ([13]; patients): 20% | common adverse event: dry skin ([13]; patients): 42% | common adverse event: fatigue ([13]; patients): 47% | common adverse event: headache ([13]; patients): 43% | common adverse event: hypertension ([13]; patients): 69% | common adverse event: myalgia ([13]; patients): 24% | common adverse event: nausea ([13]; patients): 28% | common adverse event: pain in extremity ([13]; patients): 23% | common adverse event: peripheral neuropathy ([13]; patients): 24% | common adverse event: pyrexia ([13]; patients): 26% | common adverse event: rash ([13]; patients): 63% | IC50 ([8]; Homo sapiens, read-out: IC50 of colony formation of PC cells): < 1000 nM
